We go through 16 compounds from US9540343B2 (Gilead Sciences, Inc., priority 2011, dated 2017).

Bounds are passed on as bounds.

In one data set the test system is HIV-IIIb. As to the kind of experiment: Test A: Antiviral assay in MT4 cells. It counts as cell-based, HIV-1. Particulars: Human immunodeficiency virus 1, IIIB, MT4, 120 h, read-out: % inhibition at 2 μM, percent inhibition of virus-induced cell killing, from dose response curve at 2 uM drug; MT-4 cells infected with HIV-IIIb, 5 days, CellTiter-Glo. On the technique in general: Cellular ATP, detected with luciferase, serves as a proxy for viable cell number.

The next data set can be described thus: in vitro. As to conditions: human, uninfected MT-4 cells, CC50 (nM), same protocol as Test A, CellTiter-Glo. Put shortly:
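Cytoprotection read-out: CellTiter-Glo chemiluminescence after 5 days at 37 °C of HIV-IIIb-infected MT-4 cells (m.o.i. 0.003) with compound in 10-point 3-fold dilutions, quadruplicate, 10% FBS. Cytotoxicity (CC50) measured identically without virus.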

On to `NC(=O)c1cc(-c2cccnc2[C@H](Cc2cc(F)cc(F)c2)NC(=O)Cn2nc(C=O)c3c2C2CC(C3)C2)ccc1F` [Example 96, (S)-5-(2-(2-(3,5-difluorophenyl)-1-(2-(4,5,6,7-tetrahydro-3-formyl-5,7-(methano)indazol-1-yl)acetamido)ethyl)pyridin-3-yl)-2-fluorobenzamide], for which, in the data set on HIV-IIIb, the inhibition at 2 µM was found to be 104%. The 50% cytotoxic concentration (CC50) at 5 days in “in vitro” amounted to 9620 nM.
As to `NC(=O)c1cc(-c2cccnc2[C@H](Cc2cc(F)cc(F)c2)NC(=O)Cn2nc(C(F)(F)F)c3c2CC2C3C2(F)F)ccc1F` (stereo partly drawn) [Example 199E, 5-(2-((1S)-1-(2-(4,4-difluoro-3-(trifluoromethyl)-3b,4,4a,5-tetrahydro-1H-cyclopropa[3,4]cyclopenta[1,2-c]pyrazol-1-yl)acetamido)-2-(3,5-difluorophenyl)ethyl)pyridin-3-yl)-2-fluorobenzamide], in the data set on HIV-IIIb, the inhibition at 2 µM stood at 18%. In “in vitro”, the CC50 at 5 days is 9520 nM.
As for `NC(=O)c1cc(-c2cccnc2[C@H](Cc2cc(F)cc(F)c2)NC(=O)Cc2nc3cccc4c3n2CCC4)ccc1F` [Example 152D, (S)-5-(2-(2-(3,5-difluorophenyl)-1-(2-(5,6-dihydro-4H-imidazo[4,5,1-ij]quinolin-2-yl)acetamido)ethyl)pyridin-3-yl)-2-fluorobenzamide], the inhibition at 2 µM in the data set with HIV-IIIb is 81%. The compound further came in with a CC50 at 5 days in “in vitro” of 28400 nM.
`COc1ccc(-c2cccnc2[C@H](Cc2cc(F)cc(F)c2)NC(=O)Cc2c[nH]c3ccc(NS(C)(=O)=O)cc23)cc1` [Example 35G, (S)—N-(2-(3,5-difluorophenyl)-1-(3-(4-methoxyphenyl)pyridin-2-yl)ethyl)-2-(5-(methylsulfonamido)-1H-indol-3-yl)acetamide]: the inhibition at 2 µM in the data set on HIV-IIIb was 49%. Moreover, the CC50 at 5 days in the data set “in vitro” was 22400 nM.
As for `NC(=O)c1cc(-c2cccnc2[C@H](Cc2cc(F)cc(F)c2)NC(=O)Cn2nc(C(F)(F)F)c3c2C(=O)C2CC32)ccc1F` (stereo partly drawn) [Example 561B, 5-(2-((1S)-2-(3,5-difluorophenyl)-1-(2-(5-oxo-3-(trifluoromethyl)-3b,4,4a,5-tetrahydro-1H-cyclopropa[3,4]cyclopenta[1,2-c]pyrazol-1-yl)acetamido)ethyl)pyridin-3-yl)-2-fluorobenzamide], the inhibition at 2 µM in the data set with HIV-IIIb amounted to 8%. Half-maximal cytotoxicity in the data set “in vitro” (CC50 at 5 days) was put at 29000 nM.
In the case of `NC(=O)c1cccc(-c2cccnc2[C@H](Cc2cc(F)cc(F)c2)NC(=O)CC2C(=O)Nc3ccc(F)cc32)c1` (stereo partly drawn) [Example 196, 3-(2-((1S)-2-(3,5-difluorophenyl)-1-(2-(5-fluoro-2-oxoindolin-3-yl)acetamido)ethyl)pyridin-3-yl)benzamide], the inhibition at 2 µM with HIV-IIIb was determined as 2%. For the same compound, the CC50 at 5 days in the data set “in vitro” is 29600 nM.
With `NC(=O)c1cc(-c2cccnc2[C@H](Cc2cc(F)cc(F)c2)NC(=O)Cn2nc(C(F)F)c3c2C(F)C2CC32)ccc1F` (stereo partly drawn) [Example 260, 5-(2-((1S)-1-(2-(3-(difluoromethyl)-5-fluoro-3b,4,4a,5-tetrahydro-1H-cyclopropa[3,4]cyclopenta[1,2-c]pyrazol-1-yl)acetamido)-2-(3,5-difluorophenyl)ethyl)pyridin-3-yl)-2-fluorobenzamide], in the data set with HIV-IIIb, the inhibition at 2 µM was determined as 54%. The compound also yielded a CC50 at 5 days in “in vitro” of 28100 nM.
As to `NC(=O)c1cc(-c2cccnc2[C@H](Cc2cc(F)cc(F)c2)NC(=O)Cn2nc(C(F)F)c3c2C2CC(C3)C2)ccc1F` [Example 87, (S)-5-(2-(2-(3,5-difluorophenyl)-1-(2-(4,5,6,7-tetrahydro-3-difluoromethyl-5,7-(methano)indazol-1-yl)acetamido)ethyl)pyridin-3-yl)-2-fluorobenzamide], in the data set on HIV-IIIb, the inhibition at 2 µM came to 101%. This compound also showed a CC50 at 5 days in “in vitro” of 21600 nM.
Regarding `CCc1c(C2CC2)c(C(F)(F)F)nn1CC(=O)N[C@@H](Cc1cc(F)cc(F)c1)c1ncccc1-c1ccc(F)c(C(N)=O)c1` [Example 343, (S)-5-(2-(1-(2-(4-cyclopropyl-5-ethyl-3-(trifluoromethyl)-1H-pyrazol-1-yl)acetamido)-2-(3,5-difluorophenyl)ethyl)pyridin-3-yl)-2-fluorobenzamide], in the data set on HIV-IIIb, the inhibition at 2 µM worked out at 62%. Further, in “in vitro”, the CC50 at 5 days came to 15500 nM.
Regarding `CCOCc1cn(CC(=O)N[C@@H](Cc2cc(F)cc(F)c2)c2ncccc2-c2ccc(F)c(C(N)=O)c2)nc1C(F)(F)F` [Example 330, (S)-5-(2-(2-(3,5-difluorophenyl)-1-(2-(4-(ethoxymethyl)-3-(trifluoromethyl)-1H-pyrazol-1-yl)acetamido)ethyl)pyridin-3-yl)-2-fluorobenzamide], the inhibition at 2 µM with HIV-IIIb is 3%. The compound further gave a cytotoxic concentration (CC50) at 5 days in the data set “in vitro” of 29300 nM.
Take `NC(=O)c1cc(-c2cccnc2[C@H](Cc2cc(F)cc(F)c2)NC(=O)Cn2nc3c(c2C(F)F)CC2CC32)ccc1F` (stereo partly drawn) [Example 160, 5-(2-((1S)-1-(2-(3-(difluoromethyl)-4,4-a,5,5a-tetrahydro-2H-cyclopropa[4,5]cyclopenta[1,2-c]pyrazol-2-yl)acetamido)-2-(3,5-difluorophenyl)ethyl)pyridin-3-yl)-2-fluorobenzamide]: the inhibition at 2 µM in the data set with HIV-IIIb was 45%. In the data set “in vitro”, it took 29300 nM to reach half-maximal cytotoxicity (CC50 at 5 days).
In the case of `Cc1ccccc1-c1ccnc(C(Cc2ccccc2)NC(=O)Cc2c[nH]c3ccc(O)cc23)n1` (centres unmarked) [Example 9E, 2-(5-hydroxy-1H-indol-3-yl)-N-(2-phenyl-1-(4-o-tolylpyrimidin-2-yl)ethyl)acetamide], in the data set with HIV-IIIb, the inhibition at 2 µM came out at 0%. In the data set “in vitro”, this compound gave a CC50 at 5 days of 35900 nM.
Turning to `CCOC(=O)c1nn(CC(=O)N[C@@H](Cc2cc(F)cc(F)c2)c2ncccc2-c2ccc(F)c(C(N)=O)c2)c2c1C1CCC2C1` (stereo partly drawn) [Example 90F, (S)-5-(2-(2-(3,5-difluorophenyl)-1-(2-(4,5,6,7-tetrahydro-3-carboethoxy-4,7-(methano)indazol-1-yl)acetamido)ethyl)pyridin-3-yl)-2-fluorobenzamide], in the data set with HIV-IIIb, the inhibition at 2 µM is 13%. For the same compound, in the data set “in vitro”, it took 34600 nM to reach half-maximal cytotoxicity (CC50 at 5 days).
Consider `NC(=O)c1cc(-c2cccnc2[C@H](Cc2cc(F)cc(F)c2)NC(=O)Cn2nc(C(F)(F)OCc3ccccn3)c3c2CCCC3)ccc1OCc1ccccn1` [Example 129, (S)-5-(2-(1-(2-(3-(difluoro(pyridin-2-ylmethoxy)methyl)-4,5,6,7-tetrahydro-1H-indazol-1-yl)acetamido)-2-(3,5-difluorophenyl)ethyl)pyridin-3-yl)-2-(pyridin-2-ylmethoxy)benzamide], for which the inhibition at 2 µM in the data set on HIV-IIIb worked out at 0%. In “in vitro”, half-maximal cytotoxicity (CC50 at 5 days) was put at 10200 nM.
In the same order, the values of `CCn1c(=O)c2c(n1CC(=O)N[C@@H](Cc1cc(F)cc(F)c1)c1ncccc1-c1ccc(F)c(C(N)=O)c1)CCCC2` [Example 170C, (S)-5-(2-(2-(3,5-difluorophenyl)-1-(2-(2-ethyl-3-oxo-2,3,4,5,6,7-hexahydro-1H-indazol-1-yl)acetamido)ethyl)pyridin-3-yl)-2-fluorobenzamide] are 22% and above 53200 nM.
In the case of `O=C(Cn1[nH]c(=O)c2c1CCCC2)N[C@@H](Cc1cc(F)cc(F)c1)c1ncccc1-c1ccc(Cl)cc1` [Example 146, (S)—N-(1-(3-(4-chlorophenyl)pyridin-2-yl)-2-(3,5-difluorophenyl)ethyl)-2-(3-oxo-2,3,4,5,6,7-hexahydro-1H-indazol-1-yl)acetamide], the inhibition at 2 µM in the data set on HIV-IIIb was 66%. Besides, it took 20600 nM to reach half-maximal cytotoxicity in the data set “in vitro” (CC50 at 5 days).

A word on the inhibition: it is the drop in the measured response relative to a control, in per cent. In general, CC50 refers to the concentration giving 50% cytotoxicity.
